In patent US20230085307A1, “PYRIDAZINONE COMPOUND AND HERBICIDE” (NISSAN CHEMICAL CORPORATION, priority 2019, published 2023):

Experiments:
oval-leafed pondweed [1] = assay: Test Example 1: herbicidal activity, application before weed generation under submerged conditions (Table 16, symbol C); type: in vivo, oval-leafed pondweed (Monochoria vaginalis); conditions: 320 g/ha applied herbicide
How it was run: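 Submerged Wagner pots (alluvial soil, 4 cm water) sown with weed seeds and planted with 2.5-leaf rice seedlings; emulsifiable concentrate diluted in water applied to water surface on sowing day. Held in greenhouse at 25-30 °C; injury scored 0-5 by herbicidal rate after three weeks.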

late watergrass = assay: Test Example 2: herbicidal activity, application during weed generation under submerged conditions (Table 17, symbol A); type: in vivo, late watergrass (Echinochloa oryzicola); conditions: AAH 320 g/ha; application during weed generation, submerged conditions
How it was run: (§1)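 Mixed weed seedlings in alluvial soil under a 4 cm water layer, greenhouse-grown at 25–30° C. Compound given as a diluted emulsion into the floodwater at the 1–2 leaf stage; response graded after three weeks.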

oval-leafed pondweed [2] = assay: Test Example 2: herbicidal activity, application during weed generation under submerged conditions (Table 17, symbol C); type: in vivo, oval-leafed pondweed (Monochoria vaginalis); conditions: AAH 320 g/ha; application during weed generation, submerged conditions
How it was run: as §1

rice flat sedge = assay: Test Example 3: herbicidal effect by foliage application, Wagner pot (Table 18, symbol E); type: in vivo, rice flat sedge (Cyperus iria); conditions: 320 g/ha
How it was run: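 Plants were sown in alluvial soil held under 0.1–0.5 cm standing water and grown 14 days in a greenhouse at 25–30 °C. An emulsifiable formulation, water-diluted to the set dose, was then sprayed onto the foliage, and effects were scored three weeks later using previously defined criteria.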

green foxtail [3] = assay: Test Example 4: herbicidal effect by soil treatment (Table 19, symbol G); type: in vivo, green foxtail (Setaria viridis); conditions: 320 g/ha
How it was run: (§2)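 Step 1: sow seeds in sterilized diluvial soil, cover ~1.5 cm. Step 2: spray diluted emulsion onto soil surface at predetermined rate. Step 3: greenhouse, 25–30° C, three weeks. Step 4: grade effect on each plant by earlier criteria.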

wild oat [4] = assay: Test Example 4: herbicidal effect by soil treatment (Table 19, symbol I); type: in vivo, wild oat (Avena fatua); conditions: 320 g/ha
How it was run: as §2

blackgrass = assay: Test Example 4: herbicidal effect by soil treatment (Table 19, symbol J); type: in vivo, blackgrass (Alopecurus myosuroides); conditions: 320 g/ha
How it was run: as §2

Italian ryegrass [5] = assay: Test Example 4: herbicidal effect by soil treatment (Table 19, symbol K); type: in vivo, Italian ryegrass (Lolium multiflorum); conditions: 320 g/ha
How it was run: as §2

velvetleaf [6] = assay: Test Example 4: herbicidal effect by soil treatment (Table 19, symbol M); type: in vivo, velvetleaf (Abutilon theophrasti); conditions: 320 g/ha
How it was run: as §2

redroot pigweed = assay: Test Example 4: herbicidal effect by soil treatment (Table 19, symbol N); type: in vivo, redroot pigweed (Amaranthus retroflexus); conditions: 320 g/ha
How it was run: as §2

chickweed = assay: Test Example 4: herbicidal effect by soil treatment (Table 19, symbol P); type: in vivo, common chickweed (Stellaria media); conditions: 320 g/ha
How it was run: as §2

southern crabgrass = assay: Test Example 5: herbicidal effect by foliage application, plastic box (Table 20, symbol F); type: in vivo, southern crabgrass (Digitaria ciliaris); conditions: foliage application, 320 g/ha, evaluated three weeks after application
How it was run: (§3)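 Foliar spray test: emulsion formulation diluted in water to a set application rate, sprayed onto 14-day-old plants raised in diluvial soil at 25° C to 30° C under glass. Both herbicidal effect and crop effect rated visually three weeks later.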

green foxtail [7] = assay: Test Example 5: herbicidal effect by foliage application, plastic box (Table 20, symbol G); type: in vivo, green foxtail (Setaria viridis); conditions: foliage application, 320 g/ha, evaluated three weeks after application
How it was run: as §3

wild oat [8] = assay: Test Example 5: herbicidal effect by foliage application, plastic box (Table 20, symbol I); type: in vivo, wild oat (Avena fatua); conditions: foliage application, 320 g/ha, evaluated three weeks after application
How it was run: as §3

Italian ryegrass [9] = assay: Test Example 5: herbicidal effect by foliage application, plastic box (Table 20, symbol K); type: in vivo, Italian ryegrass (Lolium multiflorum); conditions: foliage application, 320 g/ha, evaluated three weeks after application
How it was run: as §3

velvetleaf [10] = assay: Test Example 5: herbicidal effect by foliage application, plastic box (Table 20, symbol M); type: in vivo, velvetleaf (Abutilon theophrasti); conditions: foliage application, 320 g/ha, evaluated three weeks after application
How it was run: as §3

persian speedwell = assay: Test Example 5: herbicidal effect by foliage application, plastic box (Table 20, symbol R); type: in vivo, Persian speedwell (Veronica persica); conditions: foliage application, 320 g/ha, evaluated three weeks after application
How it was run: as §3

Compound | Herbicidal effect on C: oval-leafed pondweed (grade 0-5) (oval-leafed pondweed [1]) | herbicidal effect rating, A: late watergrass (late watergrass) | herbicidal effect rating, C: oval-leafed pondweed (oval-leafed pondweed [2]) | herbicidal effect on E (rice flat sedge), rating 0-5 (rice flat sedge) | herbicidal effect rating, G: green foxtail (green foxtail [3]) | herbicidal effect rating, I: wild oat (wild oat [4]) | herbicidal effect rating, J: blackgrass (blackgrass) | herbicidal effect rating, K: Italian ryegrass (Italian ryegrass [5]) | herbicidal effect rating, M: velvetleaf (velvetleaf [6]) | herbicidal effect rating, N: redroot pigweed (redroot pigweed) | herbicidal effect rating, P: chickweed (chickweed) | herbicidal effect on F: southern crabgrass (southern crabgrass) | herbicidal effect on G: green foxtail (green foxtail [7]) | herbicidal effect on I: wild oat (wild oat [8]) | herbicidal effect on K: Italian ryegrass (Italian ryegrass [9]) | herbicidal effect on M: velvetleaf (velvetleaf [10]) | herbicidal effect on R: persian speedwell (persian speedwell)
CON=C(C)c1ccc(-c2sc3ccc(F)cc3c2-c2c(O)c(C)nn(C)c2=O)cc1 [2-079] | 1 (Herbicidal rate of 5% or more and less than 20%) | 0 (Herbicidal rate of 5% or less (almost no effect)) | 2 (Herbicidal rate of 20% or more and less than 40%) | 5 (Herbicidal rate of 90% or more (almost completely withered)) | 5 (Herbicidal rate of 90% or more (almost completely withered)) | 0 (Herbicidal rate of 5% or less (almost no effect)) | 0 (Herbicidal rate of 5% or less (almost no effect)) | 4 (Herbicidal rate of 70% or more and less than 90%) | 4 (Herbicidal rate of 70% or more and less than 90%) | 5 (Herbicidal rate of 90% or more (almost completely withered)) | 2 (Herbicidal rate of 20% or more and less than 40%) | 5 (Herbicidal rate of 90% or more (almost completely withered)) | 5 (Herbicidal rate of 90% or more (almost completely withered)) | 5 (Herbicidal rate of 90% or more (almost completely withered)) | 5 (Herbicidal rate of 90% or more (almost completely withered)) | 5 (Herbicidal rate of 90% or more (almost completely withered)) | 5 (Herbicidal rate of 90% or more (almost completely withered))
CCCC(=O)Oc1c(C)nn(C)c(=O)c1-c1c(-c2ccc(C(C)=NOC)cc2)sc2ccc(F)cc12 [2-080] | 4 (Herbicidal rate of 70% or more and less than 90%) | 2 (Herbicidal rate of 20% or more and less than 40%) | 4 (Herbicidal rate of 70% or more and less than 90%) | 5 (Herbicidal rate of 90% or more (almost completely withered)) | 1 (Herbicidal rate of 5% or more and less than 20%) | 0 (Herbicidal rate of 5% or less (almost no effect)) | 1 (Herbicidal rate of 5% or more and less than 20%) | 4 (Herbicidal rate of 70% or more and less than 90%) | 5 (Herbicidal rate of 90% or more (almost completely withered)) | 5 (Herbicidal rate of 90% or more (almost completely withered)) | 3 (Herbicidal rate of 40% or more and less than 70%) | 5 (Herbicidal rate of 90% or more (almost completely withered)) | 4 (Herbicidal rate of 70% or more and less than 90%) | 5 (Herbicidal rate of 90% or more (almost completely withered)) | 5 (Herbicidal rate of 90% or more (almost completely withered)) | 5 (Herbicidal rate of 90% or more (almost completely withered)) | 5 (Herbicidal rate of 90% or more (almost completely withered))
CCOc1cc(F)ccc1-c1sc2ccc(F)cc2c1-c1c(O)c(C)nn(C)c1=O [2-084] | 2 (Herbicidal rate of 20% or more and less than 40%) | 2 (Herbicidal rate of 20% or more and less than 40%) | 3 (Herbicidal rate of 40% or more and less than 70%) | 5 (Herbicidal rate of 90% or more (almost completely withered)) | 4 (Herbicidal rate of 70% or more and less than 90%) | 2 (Herbicidal rate of 20% or more and less than 40%) | 2 (Herbicidal rate of 20% or more and less than 40%) | 3 (Herbicidal rate of 40% or more and less than 70%) | 3 (Herbicidal rate of 40% or more and less than 70%) | 5 (Herbicidal rate of 90% or more (almost completely withered)) | 4 (Herbicidal rate of 70% or more and less than 90%) | 4 (Herbicidal rate of 70% or more and less than 90%) | 5 (Herbicidal rate of 90% or more (almost completely withered)) | 4 (Herbicidal rate of 70% or more and less than 90%) | 3 (Herbicidal rate of 40% or more and less than 70%) | 5 (Herbicidal rate of 90% or more (almost completely withered)) | 5 (Herbicidal rate of 90% or more (almost completely withered))
CCCC(=O)Oc1c(C)nn(C)c(=O)c1-c1c(-c2ccc(F)cc2OCC)sc2ccc(F)cc12 [2-085] | 1 (Herbicidal rate of 5% or more and less than 20%) | 2 (Herbicidal rate of 20% or more and less than 40%) | 3 (Herbicidal rate of 40% or more and less than 70%) | 4 (Herbicidal rate of 70% or more and less than 90%) | 3 (Herbicidal rate of 40% or more and less than 70%) | 2 (Herbicidal rate of 20% or more and less than 40%) | 0 (Herbicidal rate of 5% or less (almost no effect)) | 0 (Herbicidal rate of 5% or less (almost no effect)) | 0 (Herbicidal rate of 5% or less (almost no effect)) | 5 (Herbicidal rate of 90% or more (almost completely withered)) | 3 (Herbicidal rate of 40% or more and less than 70%) | 5 (Herbicidal rate of 90% or more (almost completely withered)) | 3 (Herbicidal rate of 40% or more and less than 70%) | 3 (Herbicidal rate of 40% or more and less than 70%) | 3 (Herbicidal rate of 40% or more and less than 70%) | 5 (Herbicidal rate of 90% or more (almost completely withered)) | 4 (Herbicidal rate of 70% or more and less than 90%)
